Patent publication US20260374754A1, “N-((ISOQUINOLIN-6-YL)METHYL)-1H-PYRAZOLE-4-CARBOXAMIDE DERIVATIVES AS PLASMA KALLIKREIN INHIBITORS FOR THE TREATMENT OF HEREDITARY ANGIODEMA” (Takeda Pharmaceutical Company Limited, priority 2022, published 2026)

target: human activated kallikrein enzyme (Homo sapiens, UniProt P03952); assay: Inhibition of human activated plasma kallikrein, fluorogenic PFR-AMC substrate, 500 pM enzyme format; type: biochemical; conditions: 500 pM activated kallikrein; 300 μM PFR-AMC; 30 min preincubation; 10 min room temperature; pH 7.5; read-out: Primary Dose Response Assay: Average EC50
Summary of the method: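 500 pM activated kallikrein preincubated 30 min at room temperature with inhibitors in pH 7.5 Tris/EDTA/NaCl buffer with PEG-400 and Triton X-100. Reaction started with 300 μM PFR-AMC, run 10 min at room temperature; AMC fluorescence read at ex 380/em 460 nm.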

human activated kallikrein enzyme, sequence (P03952 391-638 limits assumed): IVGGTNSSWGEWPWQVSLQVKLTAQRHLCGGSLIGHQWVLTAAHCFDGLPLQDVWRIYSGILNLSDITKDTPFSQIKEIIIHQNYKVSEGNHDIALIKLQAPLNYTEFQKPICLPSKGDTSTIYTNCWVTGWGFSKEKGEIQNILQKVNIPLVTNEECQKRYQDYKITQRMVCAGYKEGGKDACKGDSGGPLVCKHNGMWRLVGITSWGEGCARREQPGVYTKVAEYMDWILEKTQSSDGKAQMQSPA
human activated kallikrein enzyme, sequence (P03952 20-390 partner limits assumed): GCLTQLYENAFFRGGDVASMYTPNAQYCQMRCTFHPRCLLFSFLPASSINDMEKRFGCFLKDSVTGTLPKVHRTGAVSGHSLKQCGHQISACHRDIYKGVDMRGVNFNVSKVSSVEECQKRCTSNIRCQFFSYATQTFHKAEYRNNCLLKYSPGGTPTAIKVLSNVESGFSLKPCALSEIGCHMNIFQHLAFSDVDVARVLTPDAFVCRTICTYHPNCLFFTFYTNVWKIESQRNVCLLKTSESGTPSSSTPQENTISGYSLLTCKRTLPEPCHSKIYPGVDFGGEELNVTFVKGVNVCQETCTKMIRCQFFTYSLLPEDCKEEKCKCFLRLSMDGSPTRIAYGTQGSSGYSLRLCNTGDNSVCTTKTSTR

Row | Structure (SMILES) | EC50
1 | COCc1c(C(=O)NCc2c(C)cc3c(N)nccc3c2C)cnn1Cc1cnc(N2CCCC2)nc1 [Example 161, N-((1-amino-5,7-dimethylisoquinolin-6-yl)methyl)-5-(methoxymethyl)-1-((2-(pyrrolidin-1-yl)pyrimidin-5-yl)methyl)-1H-pyrazole-4-carboxamide] | 10 to 100 nM
2 | Cc1cc2c(N)nccc2c(C)c1CNC(=O)c1cnn(Cc2ccc(CC(=O)N(C)C3CC3)cc2)c1 [Example 224, N-((1-amino-5,7-dimethylisoquinolin-6-yl)methyl)-1-(4-(2-(cyclopropyl(methyl)amino)-2-oxoethyl)benzyl)-1H-pyrazole-4-carboxamide] | < 1 nM
3 | Cc1ccc2nc(C(C)n3cc(C(=O)NCc4c(C)cc5c(N)nccc5c4C)cn3)cn2c1 (single isomer, unassigned) [Example 11, (R*)-N-((1-amino-5,7-dimethylisoquinolin-6-yl)methyl)-1-(1-(6-methylimidazo[1,2-a]pyridin-2-yl)ethyl)-1H-pyrazole-4-carboxamide] | < 1 nM
4 | Cc1cc2c(N)nccc2c(C)c1CNC(=O)c1cnn(Cc2ccc3c(-n4cccn4)cccc3c2)c1 [Example 112, 1-((5-(1H-pyrazol-1-yl)naphthalen-2-yl)methyl)-N-((1-amino-5,7-dimethylisoquinolin-6-yl)methyl)-1H-pyrazole-4-carboxamide] | < 1 nM
5 | Cc1ccnc(Cc2ccc(CNc3cc(NCc4c(C)cc5c(N)nccc5c4C)ncn3)cc2)c1 [Example 364, N^4-((1-amino-5,7-dimethylisoquinolin-6-yl)methyl)-N^6-(4-((4-methylpyridin-2-yl)methyl)benzyl)pyrimidine-4,6-diamine] | < 1 nM
6 | Cc1ccc2nc(Cn3cc(C(=O)NCc4c(C)cc5c(N)nccc5c4C)cn3)nn2c1 [Example 15, N-((1-amino-5,7-dimethylisoquinolin-6-yl)methyl)-1-((6-methyl-[1,2,4]triazolo[1,5-a]pyridin-2-yl)methyl)-1H-pyrazole-4-carboxamide] | < 1 nM
7 | Cc1cc2c(N)nccc2c(C)c1CNc1cc(C(F)c2cn3cc(C4CC4)ccc3n2)ncn1 (stereo not drawn) [Example 529, 6-(((6-((6-cyclopropylimidazo[1,2-a]pyridin-2-yl)fluoromethyl)pyrimidin-4-yl)amino)methyl)-5,7-dimethylisoquinolin-1-amine] | 1 to 10 nM
8 | Cc1cc2c(N)nccc2c(C)c1CNC(=O)c1cnn(Cc2cn3c(C)c(Br)ccc3n2)c1 [Example 145, N-((1-amino-5,7-dimethylisoquinolin-6-yl)methyl)-1-((6-bromo-5-methylimidazo[1,2-a]pyridin-2-yl)methyl)-1H-pyrazole-4-carboxamide] | < 1 nM
9 | Cc1cc2c(N)nccc2c(C)c1CNC(=O)c1cnn(Cc2ccc(CC(=O)N3C[C@@H]4[C@@H](CF)[C@@H]4C3)cc2)c1 [Example 207, N-((1-amino-5,7-dimethylisoquinolin-6-yl)methyl)-1-(4-(2-((1R,5S,6r)-6-(fluoromethyl)-3-azabicyclo[3.1.0]hexan-3-y1)-2-oxoethyl)benzyl)-1H-pyrazole-4-carboxamide] | 1 to 10 nM
10 | Cc1cc2c(N)nccc2c(C)c1CNC(=O)c1cnn(Cc2ccc(C#N)cc2)c1 [Example 92, N-((1-amino-5,7-dimethylisoquinolin-6-yl)methyl)-1-(4-cyanobenzyl)-1H-pyrazole-4-carboxamide] | 10 to 100 nM
11 | Cc1cc2c(N)nccc2c(C)c1CNC(=O)c1cnn(Cc2ccc(CCn3cccn3)cc2)c1 [Example 48, 1-(4-(2-(1H-pyrazol-1-yl)ethyl)benzyl)-N-((1-amino-5,7-dimethylisoquinolin-6-yl)methyl)-1H-pyrazole-4-carboxamide] | 1 to 10 nM
12 | Cc1cc2c(N)nccc2c(C)c1CNC(=O)c1cnn(Cc2ccc3c(-c4ccccn4)cccc3c2)c1 [Example 114, N-((1-amino-5,7-dimethylisoquinolin-6-yl)methyl)-1-((5-(pyridin-2-yl)naphthalen-2-yl)methyl)-1H-pyrazole-4-carboxamide] | < 1 nM
13 | Cc1cc2c(N)nccc2c(C)c1CNC(=O)c1cnn(Cc2ccc3c(cnn3C)c2)c1 [Example 52, N-((1-amino-5,7-dimethylisoquinolin-6-yl)methyl)-1-((1-methyl-1H-indazol-5-yl)methyl)-1H-pyrazole-4-carboxamide] | 1 to 10 nM
14 | Cc1cc2c(N)nccc2c(C)c1CNC(=O)c1cnn(Cc2ccc3c(Br)cccc3c2)c1 [Example 113, N-((1-amino-5,7-dimethylisoquinolin-6-yl)methyl)-1-((5-bromonaphthalen-2-yl)methyl)-1H-pyrazole-4-carboxamide] | 1 to 10 nM

Second part, the molecule after the results:

Row | EC50 | Structure (SMILES)
15 | < 1 nM | CCC(c1ccc(CNc2cc(NCc3c(C)cc4c(N)nccc4c3C)ncn2)cc1)n1cccn1 (stereo not drawn) [Example I-484, N^4-(4-(1-(1H-pyrazol-1-yl)propyl)benzyl)-N^6-((1-amino-5,7-dimethylisoquinolin-6-yl)methyl)pyrimidine-4,6-diamine]
16 | 1 to 10 nM | COc1ccc2cc(Cn3cc(C(=O)NCc4c(C)cc5c(N)nccc5c4C)cn3)cnc2c1 [Example 110, N-((1-amino-5,7-dimethylisoquinolin-6-yl)methyl)-1-((7-methoxyquinolin-3-yl)methyl)-1H-pyrazole-4-carboxamide]
17 | 10 to 100 nM | Cc1cc2c(N)nccc2c(C)c1CNc1cc(N(Cc2cn3nc(C4CC4)ccc3n2)CC(F)(F)F)ncn1 [Example 516, N^4-((1-amino-5,7-dimethylisoquinolin-6-yl)methyl)-N^6-((6-cyclopropylimidazo[1,2-b]pyridazin-2-yl)methyl)-N6-(2,2,2-trifluoroethyl)pyrimidine-4,6-diamine]
18 | 10 to 100 nM | Cc1cc2c(N)nccc2c(C)c1CNC(=O)c1cnn(Cc2nc3ccccc3o2)c1 [Example 85, N-((1-amino-5,7-dimethylisoquinolin-6-yl)methyl)-1-(benzo[d]oxazol-2-ylmethyl)-1H-pyrazole-4-carboxamide]
19 | 1 to 10 nM | Cc1cc2c(N)nccc2c(C)c1CNC(=O)c1cnn(Cc2ccc(CC(=O)N3CCOCC3)cc2)c1 [Example 225, N-((1-amino-5,7-dimethylisoquinolin-6-y1)methyl)-1-(4-(2-morpholino-2-oxoethyl)benzyl)-1H-pyrazole-4-carboxamide]
20 | < 1 nM | Cc1cc2c(N)nccc2c(C)c1CNC(=O)c1cnn(Cc2ccc(CC(=O)N3CCCC3)cc2)c1 [Example 232, N-((1-amino-5,7-dimethylisoquinolin-6-yl)methyl)-1-(4-(2-oxo-2-(pyrrolidin-1-yl)ethyl)benzyl)-1H-pyrazole-4-carboxamide]
21 | 10 to 100 nM | Cc1cc2c(N)nccc2c(C)c1CNc1cc(NCc2ccc(OC(F)(F)C(=O)N(C)C)cc2)ncn1 [Example 352, 2-(4-(((6-(((1-amino-5,7-dimethylisoquinolin-6-yl)methyl)amino)pyrimidin-4-yl)amino)methyl)phenoxy)-2,2-difluoro-N,N-dimethylacetamide]
22 | 1 to 10 nM | Cc1cc2c(N)nccc2c(C)c1CNc1cc(NCc2ccc3nccc(C)c3c2)ncn1 [Example 324, N^4-((1-amino-5,7-dimethylisoquinolin-6-yl)methyl)-N^6-((4-methylquinolin-6-yl)methyl)pyrimidine-4,6-diamine]
23 | 10 to 100 nM | Cc1cc2c(N)nccc2c(C)c1CNC(=O)c1cnn(Cc2cccc(Cl)c2)c1 [Example 98, N-((1-amino-5,7-dimethylisoquinolin-6-yl)methyl)-1-(3-chlorobenzyl)-1H-pyrazole-4-carboxamide]
24 | 1 to 10 nM | Cc1cc2c(N)nccc2c(C)c1CNC(=O)c1cnn(Cc2ccc3ccc(Br)cc3n2)c1 [Example 156, N-((1-amino-5,7-dimethylisoquinolin-6-yl)methyl)-1-((7-bromoquinolin-2-yl)methyl)-1H-pyrazole-4-carboxamide]
25 | 1 to 10 nM | Cc1cc2c(N)nccc2c(C)c1CNC(=O)c1cnn(Cc2ccc(CC(=O)NC34CC(C3)C4)cc2)c1 [Example 221, N-((1-amino-5,7-dimethylisoquinolin-6-yl)methyl)-1-(4-(2-(bicyclo[1.1.1]pentan-1-ylamino)-2-oxoethyl)benzyl)-1H-pyrazole-4-carboxamide]
26 | 10 to 100 nM | CCOC(=O)CCc1nc(NCc2c(C)cc3c(N)nccc3c2C)cc(OCc2nc3ccc(C4CC4)cn3n2)n1 [Example 292, ethyl 3-(4-(((1-amino-5,7-dimethylisoquinolin-6-yl)methyl)amino)-6-((6-cyclopropyl-[1,2,4]triazolo[1,5-a]pyridin-2-yl)methoxy)pyrimidin-2-yl)propanoate]
27 | 100 to 1000 nM | Cc1cc2c(N)nccc2c(C)c1CNc1ncccc1OCc1cn2cc(C3CC3)ccc2n1 [Example 289, 6-(((3-((6-cyclopropylimidazo[1,2-a]pyridin-2-yl)methoxy)pyridin-2-yl)amino)methyl)-5,7-dimethylisoquinolin-1-amine]
28 | 10 to 100 nM | Cc1cc2c(N)nccc2c(C)c1CNc1cc(CCc2ccc(Cn3cccn3)cc2)ncn1 [Example I-460, 6-((6-(4-((1H-pyrazol-1-yl)methyl)phenethyl)pyrimidin-4-ylamino)methyl)-5,7-dimethylisoquinolin-1-amine]
29 | < 1 nM | Cc1ccc2cc(COc3cnnc(NCc4c(C)cc5c(N)nccc5c4C)c3)ccc2n1 [Example 412, 5,7-dimethyl-6-(((5-((2-methylquinolin-6-yl)methoxy)pyridazin-3-yl)amino)methyl)isoquinolin-1-amine]

same assay, conditions: Primary Dose Response Assay: Average EC50, 500 pM activated kallikrein; 300 μM PFR-AMC; 30 min preincubation; 10 min room temperature; pH 7.5

Row | EC50 | Structure (SMILES)
30 | 1 to 10 nM | Cc1cc2c(N)nccc2c(C)c1CNC(=O)c1cn(Cc2cn3cc(C4CC4)ccc3n2)c2cccnc12 [Example I-485, N-((1-amino-5,7-dimethylisoquinolin-6-yl)methyl)-1-((6-cyclopropylimidazo[1,2-a]pyridin-2-yl)methyl)-1H-pyrrolo[3,2-b]pyridine-3-carboxamide]
